Experimental findings from patent US20260001898A1, “Heteroaryl compounds as inhibitors of TYK2/JAK1, composition and application thereof” (Accro Bioscience (HK) Limited, priority 2022, published 2026) are described below.

This test has as its system IFNα induced TYK2/JAK1 mediated STAT activation. In words: Luciferase assay in L929 ISRE cells stimulated with IFN-α. In kind it is cell-based. The following applies: Mus musculus, IFN-α 100 ng/mL; for inhibition at 0.05 µM: 50 nM compound, read-out: Inhibitory activity % (50 nM); for inhibition at 0.2 µM: 200 nM compound, read-out: Inhibitory activity % (200 nM); for inhibition at 1 µM: 1000 nM compound, read-out: Inhibitory activity % (1000 nM). On the procedure: • 1. L929 ISRE cells (5000 cells/well) were seeded on 96-well plates and incubated overnight at room temperature-; • 2. The cells were pretreated by adding different concentrations (10 nM, 50 nM, 100 nM, 200 nM or 1000 nM) of the test compounds for 2 hours; • 3. Added IFN-α (100 ng/mL) to stimulate cells for 6 hours; • 4. Removed the upper medium, add PBS (100 μL) and washed, then removed PBS; • 5. Added PLB lysis solution (50 μL) to each well, shook the well for 15 minutes; • 6. Transferred PLB lysis solution (30 μL) to a new 96-well whiteboard, added LAR II reagent (LAR II), then quickly read the 450 nm OD value with a plate washer; • 7. Added Stop & Glo reagent (30 μL), then read the 450 nm OD value using the plate washer. • 8. The final result was the OD value in step 6/OD value in step 7.

For the molecule `COc1c(Nc2cc(NC(=O)C3CC3)nnc2C(N)=O)ncnc1-c1cc(P(=O)(C2CC2)C2CC2)n(C)n1` [Compound A3, 6-(cyclopropanecarboxamido)-4-((6-(5-(dicyclopropylphosphoryl)-1-methyl-1H-pyrazol-3-yl)-5-methoxypyrimidin-4-yl)amino)pyridazine-3-carboxamide], the inhibition at 0.05 µM was 34%, the inhibition at 0.2 µM was 39% and the inhibition at 1 µM amounted to 71%.

For `COc1c(Nc2cc(Nc3ccccn3)nnc2C(N)=O)cccc1-c1cc(P(=O)(C2CC2)C2CC2)n(C)n1` [Compound A4, 4-((3-(5-(dicyclopropylphosphoryl)-1-methyl-1H-pyrazol-3-yl)-2-methoxyphenyl)amino)-6-(pyridin-2-ylamino)pyridazine-3-carboxamide], the inhibition at 0.05 µM amounted to 61%, the inhibition at 0.2 µM was 93% and the inhibition at 1 µM turned out to be 99%.

As to `COc1ccc(Nc2cc(Nc3cccc(-c4cc(P(=O)(C5CC5)C5CC5)n(C)n4)c3OC)c(C(N)=O)nn2)nc1` [Compound A5], the inhibition at 0.05 µM is 91%, the inhibition at 0.2 µM amounted to 97% and the inhibition at 1 µM was 99%.

For `CCP(=O)(CC)c1cc(-c2cccc(Nc3cc(NC(=O)C4CC4)nnc3C(N)=O)c2OC)nn1C` [Compound A6, 6-(cyclopropanecarboxamido)-4-((3-(5-(diethylphosphoryl)-1-methyl-1H-pyrazol-3-yl)-2-methoxyphenyl)amino)pyridazine-3-carboxamide], the inhibition at 0.05 µM is 23%, the inhibition at 0.2 µM came to 28% and the inhibition at 1 µM worked out at 96%.

For the molecule `COc1c(Nc2cc(NC(=O)C3CC3)nnc2C(N)=O)cccc1-c1ncc(P(C)(C)=O)cn1` [Compound A7, 6-(cyclopropanecarboxamido)-4-((3-(5-(dimethylphosphoryl)pyrimidin-2-yl)-2-methoxyphenyl)amino)pyridazine-3-carboxamide], the inhibition at 0.05 µM came out at 18%, the inhibition at 0.2 µM was 25% and the inhibition at 1 µM was 64%.

On to `COc1c(Nc2cc(N3CCCC3)nnc2C(N)=O)cccc1-c1cc(P(=O)(C2CC2)C2CC2)n(C)n1` [Compound A11, 4-((3-(5-(dicyclopropylphosphoryl)-1-methyl-1H-pyrazol-3-yl)-2-methoxyphenyl)amino)-6-(pyrrolidin-1-yl)pyridazine-3-carboxamide], for which the inhibition at 0.05 µM was 6%, the inhibition at 0.2 µM was found to be 86% and the inhibition at 1 µM is 95%.

In the case of `COc1c(-c2cc(P(=O)(C3CC3)C3CC3)n(C)n2)ccnc1Nc1cc(N)nnc1C(N)=O` [Compound A13, 6-Amino-4-((4-(5-(dicyclopropylphosphoryl)-1-methyl-1H-pyrazol-3-yl)-3-methoxypyridin-2-yl)amino)pyridazine-3-carboxamide], the inhibition at 0.05 µM worked out at 9%, the inhibition at 0.2 µM is 71% and the inhibition at 1 µM amounted to 95%.

For `CCP(=O)(CC)c1cnc(-c2cccc(Nc3cc(NC(=O)C4CC4)nnc3C(N)=O)c2OC)nc1` [Compound A14], the inhibition at 0.2 µM came out at 23% and the inhibition at 1 µM is 76%.

For the molecule `COc1c(-c2cc(P(=O)(C3CC3)C3CC3)n(C)n2)ccnc1Nc1cc(NC(=O)C2CC2)nnc1C(N)=O` [Compound A18, 6-(cyclopropanecarboxamido)-4-((4-(5-(dicyclopropylphosphoryl)-1-methyl-1H-pyrazol-3-yl)-3-methoxypyridin-2-yl)amino)pyridazine-3-carboxamide], the inhibition at 0.05 µM is 62%, the inhibition at 0.2 µM is 79% and the inhibition at 1 µM worked out at 79%.

As to `COc1c(Nc2nc(NC(=O)C3CC3)ncc2C(N)=O)cccc1-c1cc(P(=O)(C2CC2)C2CC2)n(C)n1` [Compound A19, 2-(cyclopropanecarboxamido)-4-((3-(5-(dicyclopropylphosphoryl)-1-methyl-1H-pyrazol-3-yl)-2-methoxyphenyl)amino)pyrimidine-5-carboxamide], the inhibition at 0.2 µM was determined as 28% and the inhibition at 1 µM was 71%.

As to `CNC(=O)Nc1cc(Nc2cccc(-c3cc(P(=O)(C4CC4)C4CC4)n(C)n3)c2OC)c(C(N)=O)nn1` [Compound A21], the inhibition at 0.05 µM was found to be 16%, the inhibition at 0.2 µM came to 39% and the inhibition at 1 µM was found to be 74%.

In the case of `COC(=O)Nc1cc(Nc2cccc(-c3cc(P(=O)(C4CC4)C4CC4)n(C)n3)c2OC)c(C(N)=O)nn1` [Compound A23], the inhibition at 0.2 µM was determined as 38% and the inhibition at 1 µM amounted to 85%.

Consider `[2H]C([2H])([2H])n1nc(-c2cccc(Nc3cc(NC(=O)C4CC4)nnc3C(N)=O)c2OC)cc1P(=O)(C1CC1)C1CC1` [Compound A24, 6-(cyclopropanecarboxamido)-4-((3-(5-(dicyclopropylphosphoryl)-1-(methyl-d3)-1H-pyrazol-3-yl)-2-methoxyphenyl)amino)pyridazine-3-carboxamide], for which the inhibition at 0.05 µM was 39%, the inhibition at 0.2 µM came to 90% and the inhibition at 1 µM turned out to be 95%.

On to `COc1c(Nc2cc(Nc3ccccn3)nnc2C(N)=O)cccc1-c1cc(P(C)(C)=O)n(C)n1` [Compound A26], for which the inhibition at 1 µM came out at 80%.

Take `COc1ccc(Nc2cc(Nc3cccc(-c4cc(P(C)(C)=O)n(C)n4)c3OC)c(C(N)=O)nn2)nc1` [Compound A30]: the inhibition at 0.05 µM amounted to 14%, the inhibition at 0.2 µM was determined as 58% and the inhibition at 1 µM turned out to be 90%.

Consider `COc1c(Nc2cc(Nc3ccc(C#N)cn3)nnc2C(N)=O)cccc1-c1cc(P(C)(C)=O)n(C)n1` [Compound A31], for which the inhibition at 0.05 µM was 9%, the inhibition at 0.2 µM is 54% and the inhibition at 1 µM came to 75%.

Regarding `COc1c(Nc2cc(Nc3ccc(F)cn3)nnc2C(N)=O)cccc1-c1cc(P(C)(C)=O)n(C)n1` [Compound A33], the inhibition at 0.05 µM turned out to be 45%, the inhibition at 0.2 µM came to 62% and the inhibition at 1 µM is 81%.

In the case of `COc1c(Nc2cc(Nc3cccc(C#N)n3)nnc2C(N)=O)cccc1-c1cc(P(=O)(C2CC2)C2CC2)n(C)n1` [Compound A34], the inhibition at 0.05 µM came out at 17%, the inhibition at 0.2 µM was determined as 67% and the inhibition at 1 µM was 95%.

In the case of `COc1c(Nc2cc(Nc3ncccn3)nnc2C(N)=O)cccc1-c1cc(P(=O)(C2CC2)C2CC2)n(C)n1` [Compound A38], the inhibition at 0.05 µM was 36%, the inhibition at 0.2 µM was 66% and the inhibition at 1 µM turned out to be 89%.

As to `COc1c(Nc2cc(Nc3cnccn3)nnc2C(N)=O)cccc1-c1cc(P(=O)(C2CC2)C2CC2)n(C)n1` [Compound A39], the inhibition at 0.05 µM turned out to be 59%, the inhibition at 0.2 µM stood at 78% and the inhibition at 1 µM came to 97%.

With `COc1c(Nc2cc(Nc3ccncn3)nnc2C(N)=O)cccc1-c1cc(P(=O)(C2CC2)C2CC2)n(C)n1` [Compound A40], the inhibition at 0.05 µM is 61%, the inhibition at 0.2 µM worked out at 80% and the inhibition at 1 µM is 96%.

`[2H]C([2H])([2H])n1ccc(Nc2cc(Nc3cccc(-c4cc(P(=O)(C5CC5)C5CC5)n(C)n4)c3OC)c(C(N)=O)nn2)n1` [Compound A41]: the inhibition at 0.05 µM was 55%, the inhibition at 0.2 µM amounted to 90% and the inhibition at 1 µM was determined as 95%.

For `CCn1ccc(Nc2cc(Nc3cccc(-c4cc(P(=O)(C5CC5)C5CC5)n(C)n4)c3OC)c(C(N)=O)nn2)n1` [Compound A42], the inhibition at 0.05 µM turned out to be 76%, the inhibition at 0.2 µM is 90% and the inhibition at 1 µM was 92%.

Consider `COc1c(Nc2cc(Nc3ncccc3C#N)nnc2C(N)=O)cccc1-c1cc(P(=O)(C2CC2)C2CC2)n(C)n1` [Compound A43], for which the inhibition at 0.05 µM is 0%, the inhibition at 0.2 µM amounted to 18% and the inhibition at 1 µM turned out to be 64%.

As for `COc1c(Nc2cc(NC(=O)C3C[C@H]3F)nnc2C(N)=O)cccc1-c1cc(P(=O)(C2CC2)C2CC2)n(C)n1` (stereo partly drawn) [Compound A47], the inhibition at 0.05 µM came out at 8%, the inhibition at 0.2 µM was determined as 19% and the inhibition at 1 µM stood at 62%.

On to `COc1c(Nc2cc(NC(=O)C3CC3)nnc2C(N)=O)cccc1-c1cc(P(=O)(C2CC2)C2CC2)[nH]n1` [Compound A48, 6-(cyclopropanecarboxamido)-4-((3-(5-(dicyclopropylphosphoryl)-1H-pyrazol-3-yl)-2-methoxyphenyl)amino)pyridazine-3-carboxamide], for which the inhibition at 0.05 µM was found to be 17%, the inhibition at 0.2 µM was determined as 56% and the inhibition at 1 µM came out at 76%.

As to `COc1c(Nc2cc(Nc3cc(C)ccn3)nnc2C(N)=O)cc(F)cc1-c1cc(P(C)(C)=O)n(C)n1` [Compound A51, 4-((3-(5-(dimethylphosphoryl)-1-methyl-1H-pyrazol-3-yl)-5-fluoro-2-methoxyphenyl)amino)-6-((4-methylpyridin-2-yl)amino)pyridazine-3-carboxamide], the inhibition at 0.05 µM was 55%, the inhibition at 0.2 µM was 82% and the inhibition at 1 µM was 86%.

As for `COc1c(Nc2cc(Nc3cc(C)ccn3)nnc2C(N)=O)cccc1-c1cc(P(C)(C)=O)n(C2CC2)n1` [Compound A52], the inhibition at 0.2 µM came out at 9% and the inhibition at 1 µM was 63%.
